Laboratory results published in EP0178388A1, “Quinolinecarboxylic acid derivatives” (KYORIN PHARMACEUTICAL CO., LTD., priority 1984, dated 1986).
≈ marks a conversion by molar mass, not a printed value. Structures can show the parent of a compound that is named as a salt. Where two headings read alike, the source gives them in different places.

Assays:
[1] = test system: C. perfringens KYA (ATCC) 13123; assay: microbe, parasite or virus in culture; format: cell-based; conditions: Clostridium perfringens
E. coli ML4707 [2] = assay: In vivo antibacterial activity against systemic infection in mice;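 further: ED50 in mg/kg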; conditions: Escherichia coli, ML4707, po, 1 h, E. coli ML4707, mice (ICR-S), intraperitoneal infection, oral at 1 hour after infection, challenge dose 6.0 x 10^6 cfu/mouse (part 1); read-out: ED50
Method: Experiment 2 In vivo antibacterial activity against systemic infection in mice (ICR-S)
The infections were produced by intraperitoneal infection of a suspension of the bacterial culture corresponding to the germ studied. The product was administered orally at 1 hour after the infection. The 50% effective dose (ED50) which protects 50% of the animals from death caused by the infection was determined from the relation between dosage and survival rate.

[3] = test system: Staphylococcus aureus 209 P; assay: In vitro antibacterial activity, MIC (standard strain); format: cell-based; conditions: 10^6 cells/ml, read-out: MIC
[4] = test system: Acinetobacter anitratus IID 876; assay: as above; format: cell-based; conditions: Acinetobacter calcoaceticus, IID876; Acinetobacter anitratus IID 876, 10^6 cells/ml, standard strain; read-out: MIC
[5] = test system: Proteus vulgaris IFO 3167; assay: as above; format: cell-based; conditions: IFO3167; Proteus vulgaris IFO 3167, 10^6 cells/ml, standard strain; read-out: MIC
[6] = test system: Enterobacter cloacae IID 977; assay: as above; format: cell-based; conditions: IID977, Enterobacter cloacae IID 977, 10^6 cells/ml
B. distasonis 8503 = assay: as above; format: cell-based; conditions: Parabacteroides distasonis, B. distasonis 8503, 10^6 cells/ml
[7] = test system: Citrobacter freundii IID 976; assay: as above; format: cell-based; conditions: IID976; Citrobacter freundii IID 976, 10^6 cells/ml, standard strain; read-out: MIC
P. mirabilis IID 994 = assay: as above; format: cell-based; conditions: Proteus mirabilis, IID994, P. mirabilis IID 994, 10^6 cells/ml
P. aeruginosa IFO 12689 = assay: as above; format: cell-based; conditions: Pseudomonas aeruginosa
[8] = test system: Peptostreptococcus anaerobius KYA 27337; assay: as above; format: cell-based; conditions: KYA27337, Peptostreptococcus anaerobius KYA 27337, 10^6 cells/ml
[9] = test system: Veillonella parvula KYA 10790; assay: as above; format: cell-based; conditions: KYA10790, Veillonella parvula KYA 10790, 10^6 cells/ml
[10] = test system: Bacteroides fragilis GM 7000; assay: as above; format: cell-based; conditions: GM7000; Bacteroides fragilis GM 7000, 10^6 cells/ml, standard strain; read-out: MIC
[11] = test system: Bacillus subtilis PCI 219; assay: as above; format: cell-based; conditions: PCI219; Bacillus subtilis PCI 219, 10^6 cells/ml, standard strain; read-out: MIC
B. fragilis 0558 = assay: as above; format: cell-based; conditions: Bacteroides fragilis, 0558
[12] = test system: F. varium KYA (ATCC) 8501; assay: as above; format: cell-based; conditions: Fusobacterium varium, F. varium KYA (ATCC) 8501, 10^6 cells/ml
K. pneumoniae KY(GN)6445 = assay: as above; format: cell-based; conditions: Klebsiella pneumoniae; K. pneumoniae KY(GN)6445, 10^6 cells/ml, standard strain; read-out: MIC
[13] = test system: S. aureus IID 670 (Terajima); assay: as above; format: cell-based; conditions: Staphylococcus aureus, IID670, 10^6 cells/ml
E. coli ATCC 10536 = assay: as above; format: cell-based; conditions: Escherichia coli, ATCC10536; E. coli ATCC 10536, 10^6 cells/ml, standard strain; read-out: MIC
[14] = test system: Yersinia enterocolitica IID 981; assay: as above; format: cell-based; conditions: IID981; Yersinia enterocolitica IID 981, 10^6 cells/ml, standard strain; read-out: MIC
[15] = test system: Serratia marcescens IID 618; assay: as above; format: cell-based; conditions: IID618, Serratia marcescens IID 618, 10^6 cells/ml, read-out: MIC
E. coli ML4707 [16] = assay: MIC against the infecting strain (Table 2); format: cell-based; conditions: Escherichia coli; E. coli ML4707 (Table 2, parts 1 and 2)
Method: (§1) The in vitro antibacterial activity has been investigated, the minimun inhibitory concentration (MIC) was determined in accordance with the method recommended by Japan Society of Chemotherapy.

Shigella sonnei IID 969 = assay: In vitro antibacterial activity, MIC (standard strain); format: cell-based; conditions: IID969, Shigella sonnei IID 969, 10^6 cells/ml
Method: as §1

P. morganii IID 602 = assay: as above; format: cell-based; conditions: Morganella morganii, IID602; P. morganii IID 602, 10^6 cells/ml, standard strain; read-out: MIC
S. epidermidis IID 866 = assay: as above; format: cell-based; conditions: Staphylococcus epidermidis, IID866, S. epidermidis IID 866, 10^6 cells/ml
Pst. micros UPI 5464-1 = assay: as above; format: cell-based; conditions: Parvimonas micra, UPI54641, Pst. micros UPI 5464-1, 10^6 cells/ml
[17] = test system: Salmonella enteritidis IID 604; assay: as above; format: cell-based; conditions: Salmonella enterica; Salmonella enteritidis IID 604, 10^6 cells/ml, standard strain; read-out: MIC
[18] = test system: Clostridium difficile I-E; assay: as above; format: cell-based; conditions: Clostridioides difficile, 10^6 cells/ml
[19] = test system: Alcaligenes faecalis 0114002; assay: as above; format: cell-based; conditions: Alcaligenes faecalis 0114002, 10^6 cells/ml
B. fragilis 25285 = assay: as above; format: cell-based; conditions: Bacteroides fragilis, 25285
[20] = test system: B. thetaiotaomicron (0661); assay: as above; format: cell-based; conditions: Bacteroides thetaiotaomicron; B. thetaiotaomicron (0661), 10^6 cells/ml, standard strain; read-out: MIC
[21] = test system: Escherichia coli NIHJ JC-2; assay: as above; format: cell-based; conditions: NIHJJC2, Escherichia coli NIHJ JC-2, 10^6 cells/ml
[22] = test system: Pseudomonas aeruginosa V-1; assay: as above; format: cell-based; conditions: V1; Pseudomonas aeruginosa V-1, 10^6 cells/ml, standard strain; read-out: MIC
[23] = test system: Streptococcus pyogenes S-8; assay: as above; format: cell-based; conditions: S8, Streptococcus pyogenes S-8, 10^6 cells/ml
S. pyogenes IID 692 = assay: as above; format: cell-based; conditions: Streptococcus pyogenes, IID692, S. pyogenes IID 692, 10^6 cells/ml
S. pneumoniae IID 552 = assay: as above; format: cell-based; conditions: Streptococcus pneumoniae, IID552, S. pneumoniae IID 552, 10^6 cells/ml
[24] = test system: Klebsiella pneumoniae I-220S; assay: as above; format: cell-based; conditions: I220S; Klebsiella pneumoniae I-220S, 10^6 cells/ml, standard strain; read-out: MIC
S. faecalis IID 682 = assay: as above; format: cell-based; conditions: Enterococcus faecalis, IID682, S. faecalis IID 682, 10^6 cells/ml

CC1CN(c2c(F)cc3c(=O)c(C(=O)O)cn(C4CC4)c3c2F)CC(C)N1 (stereo not drawn) [Example 4, 1-Cyclopropyl-6,8-difluoro-1,4-dihydro-7-(3,5-dimethyl-l-piperazinyl)-4-oxoquinoline-3-carboxylic acid]
MIC [1]: 1.56 µg/mL (≈ 4.13 µM)
ED50 (E. coli ML4707 [2]): 0.13 mg/kg
MIC [3]: 0.2 µg/mL (≈ 0.53 µM)
MIC [4]: 0.006 µg/mL (≈ 0.0159 µM)
MIC [5]: 0.025 µg/mL (≈ 0.0662 µM)
MIC [6]: 0.05 µg/mL (≈ 0.132 µM)
MIC (B. distasonis 8503): 3.13 µg/mL (≈ 8.29 µM)
MIC [7]: 0.025 µg/mL (≈ 0.0662 µM)
MIC (P. mirabilis IID 994): 0.1 µg/mL (≈ 0.265 µM)
MIC (P. aeruginosa IFO 12689; IFO12689): 1.56 µg/mL (≈ 4.13 µM)
MIC [8]: 3.13 µg/mL (≈ 8.29 µM)
MIC [9]: 0.39 µg/mL (≈ 1.03 µM)
MIC [10]: 3.13 µg/mL (≈ 8.29 µM)
MIC [11]: 0.05 µg/mL (≈ 0.132 µM)
MIC (B. fragilis 0558): 1.56 µg/mL (≈ 4.13 µM)
MIC [12]: 12.5 µg/mL (≈ 33.1 µM)
MIC (K. pneumoniae KY(GN)6445): 0.025 µg/mL (≈ 0.0662 µM)
MIC [13]: 0.2 µg/mL (≈ 0.53 µM)
MIC (E. coli ATCC 10536): ≤ 0.006 µg/mL
MIC [14]: 0.1 µg/mL (≈ 0.265 µM)
MIC [15]: 0.1 µg/mL (≈ 0.265 µM)
MIC (E. coli ML4707 [16]): 0.0125 µg/mL (≈ 0.0331 µM)
MIC (Shigella sonnei IID 969): 0.0125 µg/mL (≈ 0.0331 µM)
MIC (P. morganii IID 602): 0.1 µg/mL (≈ 0.265 µM)
MIC (S. epidermidis IID 866): 0.39 µg/mL (≈ 1.03 µM)
MIC (Pst. micros UPI 5464-1): 0.39 µg/mL (≈ 1.03 µM)
MIC [17]: 0.05 µg/mL (≈ 0.132 µM)
MIC [18]: 12.5 µg/mL (≈ 33.1 µM)
MIC [19]: 0.2 µg/mL (≈ 0.53 µM)
MIC (B. fragilis 25285): 1.56 µg/mL (≈ 4.13 µM)
MIC [20]: 6.25 µg/mL (≈ 16.6 µM)
MIC [21]: ≤ 0.025 µg/mL
MIC [22]: 0.39 µg/mL (≈ 1.03 µM)

CC1CN(c2c(F)cc3c(=O)c(C(=O)O)cn(C4CC4)c3c2Cl)CC(C)N1 (stereo not shown) [Example 6, 8-Chloro-1-cyclopropyl-6-fluoro-1,4-dihydro-7-(3,5-dimethyl-1-piperazinyl)-4-oxoquinoline-3-carboxylic acid and its hydrochloride]
MIC [23]: 0.39 µg/mL
MIC [3]: 0.2 µg/mL
MIC [4]: 0.1 µg/mL
MIC [5]: 0.05 µg/mL
MIC [6]: 0.2 µg/mL
MIC [7]: 0.1 µg/mL
MIC (P. mirabilis IID 994): 0.1 µg/mL
MIC (P. aeruginosa IFO 12689; IFO12689, P. aeruginosa IFO 12689, 10^6 cells/ml, standard strain, read-out: MIC): 3.13 µg/mL
MIC (S. pyogenes IID 692): 0.78 µg/mL
MIC [11]: 0.05 µg/mL
MIC (S. pneumoniae IID 552): 0.78 µg/mL
MIC (K. pneumoniae KY(GN)6445): 0.05 µg/mL
MIC [13]: 0.2 µg/mL
MIC (E. coli ATCC 10536): 0.025 µg/mL
MIC [14]: 0.2 µg/mL
MIC [15]: 0.2 µg/mL
MIC (Shigella sonnei IID 969): 0.05 µg/mL
MIC (P. morganii IID 602): 0.2 µg/mL
MIC (S. epidermidis IID 866): 0.2 µg/mL
MIC [17]: 0.1 µg/mL
MIC [24]: 0.2 µg/mL
MIC (S. faecalis IID 682): 0.78 µg/mL
MIC [19]: 0.78 µg/mL
MIC [21]: 0.05 µg/mL
MIC [22]: 1.56 µg/mL
